Data from US10011614B2, “Bis-β-carboline compound and preparation method, pharmaceutical composition and use thereof” (XINJIANG HUASHIDAN PHARMACEUTICAL RESEARCH CO., LTD., priority 2012, dated 2018).

How the values were obtained:
[1] = tested on: SK-OV-3 (human ovarian cancer cells); assay: Antitumor screening in vitro, MTT assay, SK-OV-3; type: cell-based; conditions: 48 hours, SK-OV-3 cells
Protocol: (§1) Cell lines: BGC (human gastric cancer cells), A375 (human malignant melanoma cells), 769-P (human renal carcinoma cells), KB (human oral epidermoid carcinoma cells), SK-OV-3 (human ovarian cancer cells), etc, were selected, and the test method was the MTT assay. Cisplatin was as a positive control.
(§2) Specific methods are as follows: cells growing well in the logarithmic phase were seeded in 96-well plates at a concentration of 1×10^4 cells/ml, and then were placed in 37° C., containing 5% CO2 incubator for 24 hours. After discarding the old solution, changed fresh medium, and added sterilization treatment compound, and then cultured for 48 hours. After discarding the culture medium, 20 ul RPMI1640 medium containing 5 mg/ml MTT were added to each well in 96-well plates and cells were cultured for 4 hours. After the supernatant was carefully removed, 100 μl DMSO was added to each well, and the plates were Oscillated about 10 min to dissolve the precipitate, followed by detecting OD value in wavelength 490 nm by the microplate reader. Cell survival rate for each sample concentrations was determined by the following formula: The mean survival rate %=the average OD value of sample group/the average OD value of control group×100%
(§3) Morphological studies by mapping with the logarithm of the drug concentration and the mean survival rate % of each sample to obtain IC50 values for each sample.

[2] = tested on: BGC (human gastric cancer cells); assay: Antitumor screening in vitro, MTT assay, BGC; type: cell-based; conditions: 48 hours
Protocol: as §1, §2, §3

[3] = tested on: KB (human oral epidermoid carcinoma cells); assay: Antitumor screening in vitro, MTT assay, KB; type: cell-based; conditions: 48 hours
Protocol: as §1, §2, §3

[4] = tested on: 769-P (human renal carcinoma cells); assay: Antitumor screening in vitro, MTT assay, 769-P; type: cell-based; conditions: 48 hours, 769-P cells
Protocol: as §1, §2, §3

[5] = tested on: A375 (human malignant melanoma cells); assay: Antitumor screening in vitro, MTT assay, A375; type: cell-based
Protocol: as §1, §2, §3

| SMILES | IC50 ([1]; Homo sapiens) [µM] | IC50 ([2]; Homo sapiens) [µM] | IC50 ([3]; Homo sapiens) [µM] | IC50 ([4]; Homo sapiens) [µM] | IC50 ([5]; Homo sapiens, A-375, 48 hours) [µM] | melting point [°C] | IC50 [1] [µM] | IC50 [2] [µM] | IC50 [3] [µM] | IC50 [4] [µM] | IC50 ([5]; 48 hours) [µM] |
| --- | --- | --- | --- | --- | --- | --- | --- | --- | --- | --- | --- |
| c1ccc2c(c1)c1ccncc1n2CCCCCCn1c2ccccc2c2ccncc21 [Compound 3, 1,6-bis(β-carboline-9-yl) hexane] | 38.9 | 13.8 | 13.9 | 12.8 | 10.8 |  |  |  |  |  |  |
| COc1ccc2c3ccnc(C)c3n(CCCCCn3c4cc(OC)ccc4c4ccnc(C)c43)c2c1 [Compound 15, 1,5-bis(7-methoxy-1-methyl-β-carboline-9-yl)pentane] | 1.7 | 58.6 | 5 | 81 | < 1.38 | 180 to 181 |  |  |  |  |  |
| c1ccc2c(c1)c1ccncc1n2CCCCCCCCn1c2ccccc2c2ccncc21 [Compound 5, 1,8-bis(β-carboline-9-yl) octane] | 33.5 | > 300 | > 300 | > 300 | 285 | 180 to 181 |  |  |  |  |  |
| c1ccc2c(c1)c1ccncc1n2CCCCCCCn1c2ccccc2c2ccncc21 [Compound 4, 1,7-bis(11-carboline-9-yl) heptane] |  |  |  |  |  |  | 212 | > 300 | > 300 | 53 | 286 |
| Cc1nccc2c3ccccc3n(CCCCCn3c4ccccc4c4ccnc(C)c43)c12 [Compound 8, 1,5-bis(1-methyl-β-carboline-9-yl)pentane] | 18.8 | > 300 | > 300 | > 300 | > 300 | 213 to 214 |  |  |  |  |  |
| Cc1nccc2c3cc(Br)ccc3n(CCCCC(C)n3c4ccc(Br)cc4c4ccnc(C)c43)c12 (stereo not drawn) [Compound 21, 1,5-bis(6-bromo-1-methyl-β-carboline-9-yl) hexane] | > 300 | > 300 | > 300 | 4.3 | > 300 | 208 to 209 |  |  |  |  |  |
| N.N.[Cl][Pt][Cl] [Cisplatin, reference compound] |  |  |  |  |  |  | 4.2 | 17.3 | 13.1 | 11.6 | 39.2 |
| CCOC(=O)c1cc2c3ccccc3n(CCCCCn3c4ccccc4c4cc(C(=O)OCC)nc(-c5cccnc5)c43)c2c(-c2cccnc2)n1 [Compound 29, 1,5-bis[3-ethyoxylcarbonyl-1-(pyridine-3-yl)-β-carboline-9-yl]pentane] |  |  |  |  |  |  | > 300 | 24.1 | 15.7 | 132 | 13 |
| Cc1nccc2c3ccccc3n(CCCCCCCn3c4ccccc4c4ccnc(C)c43)c12 [Compound 10, 1,7-bis(1-methyl-β-carboline-9-yl) heptane] | 16.9 | 134 | 87.9 | 149 | 38 | 189 to 190 |  |  |  |  |  |
| O=[N+]([O-])c1ccc(Cl)c(-c2nccc3c4ccccc4n(CCCCCCCCCn4c5ccccc5c5ccnc(-c6cc([N+](=O)[O-])ccc6Cl)c54)c23)c1 [Compound 38, 1,9-bis[1-(2-chloro-5-nitrophenyl)-β-carboline-9-yl) nonane] | > 300 | > 300 | > 300 | 1.8 | > 300 |  |  |  |  |  |  |
| Cc1nccc2c3ccccc3n(CCCn3c4ccccc4c4ccnc(C)c43)c12 [Compound 6, 1,3-bis (1-methyl-β-carboline-9-yl) propane] | 26.4 | 252 | 160 | 145 | 69.5 | 239 to 240 |  |  |  |  |  |
| c1ccc2c(c1)c1ccncc1n2CCCCCn1c2ccccc2c2ccncc21 [Compound 2, 1,5-bis(β-carboline-9-yl)pentane] | > 300 | 23.5 | > 300 | 15.3 | 10.2 |  |  |  |  |  |  |
| CCCCOc1ccc2c3ccnc(C)c3n(CCCCCCn3c4cc(OCCCC)ccc4c4ccnc(C)c43)c2c1 [Compound 24, 1,6-bis(7-n-butoxy-1-methyl-β-carboline-9-yl) hexane] | > 300 | > 300 | > 300 | 56 | > 300 |  |  |  |  |  |  |
| Cc1nccc2c3ccc(OC(C)C)cc3n(CCCCCCn3c4cc(OC(C)C)ccc4c4ccnc(C)c43)c12 [Compound 25, 1,6-bis(7-isopropoxy-1-methyl-β-carboline-9-yl) hexane] | 17.1 | 194 | 19.8 | 95.4 | 18.5 |  |  |  |  |  |  |
| COc1ccc2c3ccnc(C)c3n(CCCCCCCC(C)n3c4cc(OC)ccc4c4ccnc(C)c43)c2c1 (stereo not drawn) [Compound 18, 1,8-bis(7-methoxy-1-methyl-β-carboline-9-yl) nonane] | 10.2 | 104 | 38.6 | 114 | 113 |  |  |  |  |  |  |
| CCOC(=O)c1cc2c3ccccc3n(CCCCCCn3c4ccccc4c4cc(C(=O)OCC)nc(-c5cccnc5)c43)c2c(-c2cccnc2)n1 [Compound 30, 1,6-bis[3-ethyoxylcarbonyl-1-(pyridine-3-yl)-β-carboline-9-yl]hexane] |  |  |  |  |  |  | 68.3 | > 300 | > 300 | > 300 | > 300 |
| COc1cc(-c2nccc3c4ccccc4n(CCCCCCCn4c5ccccc5c5ccnc(-c6cc(OC)c(OC)c(OC)c6)c54)c23)cc(OC)c1OC [Compound 20, 1,7-bis[1-(3,4,5-trimethoxy)phenyl-β-carboline-9-yl) heptane] |  |  |  |  |  |  | > 300 | > 300 | 7.6 | 3.3 | 4 |

Now from value to compound:

| IC50 ([1]; Homo sapiens) [µM] | IC50 ([2]; Homo sapiens) [µM] | IC50 ([3]; Homo sapiens) [µM] | IC50 ([4]; Homo sapiens) [µM] | IC50 ([5]; Homo sapiens, A-375, 48 hours) [µM] | melting point [°C] | IC50 [1] [µM] | IC50 [2] [µM] | IC50 [3] [µM] | IC50 [4] [µM] | IC50 ([5]; 48 hours) [µM] | SMILES |
| --- | --- | --- | --- | --- | --- | --- | --- | --- | --- | --- | --- |
| > 300 | > 300 | > 300 | 4.6 | 19.6 |  |  |  |  |  |  | CC(C)c1nccc2c3ccccc3n(CCCCCCCCCCn3c4ccccc4c4ccnc(C(C)C)c43)c12 [Compound 40, 1,10-bis[1-isopropyl-β-carboline-9-yl) decane] |
| 36.8 | 270 | > 300 | > 300 | 85.3 | 224 to 225 |  |  |  |  |  | c1cncc(-c2nccc3c4ccccc4n(CCCCn4c5ccccc5c5ccnc(-c6cccnc6)c54)c23)c1 [Compound 31, 1,4-bis[1-(pyridine-3-yl)-β-carboline-9-yl) butane] |
| 67.6 | > 300 | > 300 | > 300 | > 300 | 198 to 199 |  |  |  |  |  | c1ccc2c(c1)c1ccnc(-c3ccsc3)c1n2CCCCCCn1c2ccccc2c2ccnc(-c3ccsc3)c21 [Compound 33, 1,6-bis[1-(3-thienyl)-β-carboline-9-yl) hexane] |
| > 300 | > 300 | > 300 | 82.1 | 10.4 |  |  |  |  |  |  | Clc1ccccc1-c1nccc2c3ccccc3n(CCCCCCCn3c4ccccc4c4ccnc(-c5ccccc5Cl)c43)c12 [Compound 36, 1,7-bis[1-(2-chlorophenyl)-β-carboline-9-yl) heptane] |
|  |  |  |  |  |  | > 300 | > 300 | > 300 | > 300 | 23.2 | Clc1ccccc1-c1nccc2c3ccccc3n(CCCCCCn3c4ccccc4c4ccnc(-c5ccccc5Cl)c43)c12 [Compound 35] |
| 31.8 | > 300 | 253 | 18.5 | 53.5 | 241 to 242 |  |  |  |  |  | CC(C)c1nccc2c3ccccc3n(CCCCCCn3c4ccccc4c4ccnc(C(C)C)c43)c12 [Compound 39, 1,6-bis(1-isopropyl-β-carboline-9-yl) hexane] |
|  |  |  |  |  |  | > 300 | > 300 | > 300 | 44.6 | 218 | CCOC(=O)c1cc2c3ccccc3n(CCCCCCCCCn3c4ccccc4c4cc(C(=O)OCC)nc(-c5cc(OC)c(OC)c(OC)c5)c43)c2c(-c2cc(OC)c(OC)c(OC)c2)n1 [Compound 28, 1,9-bis[1-(3,4.5-trimethoxy)phenyl-β-carboline-3-ethyoxylcarbonyl-9-yl]nonane] |
| 14.9 | 14.1 | 13.3 | > 300 | 5.3 |  |  |  |  |  |  | c1cncc(-c2nccc3c4ccccc4n(CCCCCCn4c5ccccc5c5ccnc(-c6cccnc6)c54)c23)c1 [Compound 32, 1,6-bis[1-(pyridine-3-yl)-β-carboline-9-yl) hexane] |
|  |  |  |  |  |  | > 300 | > 300 | > 300 | 3.8 | 7 | O=[N+]([O-])c1ccc(Cl)c(-c2nccc3c4ccccc4n(CCCCCCn4c5ccccc5c5ccnc(-c6cc([N+](=O)[O-])ccc6Cl)c54)c23)c1 [Compound 37, 1,6-bis[1-(2-chloro-5-nitro-phenyl)-⊕-carboline-9-yl) hexane] |
| 8.9 | > 300 | > 300 | 3.1 | > 300 |  |  |  |  |  |  | Brc1ccc2c(c1)c1ccncc1n2CCCCn1c2ccc(Br)cc2c2ccncc21 [Compound 41, 1,4-bis[6-bromo-βcarboline-9-yl) butane] |
